Columns and labels:
[1] = tested on: diabetic renal disease mouse model (STZ, C57BL/6J mice); assay: Blood glucose, kidney-to-body weight ratio, creatinine clearance rate and urine albumin level in STZ renal disease mouse model; format: in vivo; conditions: STZ+DCQA group vs STZ, DCQA 9 μg/mL 100 μL intraperitoneally every day for 6 weeks
Procedure: The blood glucose, kidney-to-body weight ratio, creatinine clearance rate and urine albumin level in a renal disease mouse model were measured by the method reported by Kim S Y et al. [Kim S Y, Park K H, Gul R, Jang K Y, Kim U H. Am. J. Physiol. Renal Physiol. 296: F291-F297, 2009]
(§1) Specifically, 0.2 mL of 50 mM citrate buffer (pH 4.8) (control group and DCQA group) or 200 μL of 5 mg/mL streptozotocin (STZ, Sigma-Aldrich (USA)) dissolved in 50 mM citrate buffer (STZ group and STZ+DCQA group) was intraperitoneally injected to C57BL/6J mice. Blood glucose was measured from day 2 after the STZ injection and the mice whose blood glucose level was 300 mg/dL were divided into an STZ group and an STZ+DCQA group. […] On the last day, the mouse was put in a metabolic cage and urine was collected for 24 hours.
Then, the body weight and blood glucose of the mouse were measured (FIG. 6A). In addition, in order to investigate the possibility as a therapeutic agent for a renal disease, the mouse was sacrificed and serum and kidney were taken. After measuring kidney-to-body weight ratio (FIG. 6B), some of the kidney was fixed in 10% formalin for fluorescent staining and H&E staining, and the remainder was subjected to ADPR cyclase activity and cADPR concentration measurement. Creatinine clearance rate was calculated by measuring the creatinine levels in urine and serum using a creatinine assay kit (Bioassay Systems, USA) (FIG. 6C), and urine albumin level was measured using an albumin assay kit (Bioassay Systems, USA) (FIG. 6D).

[2] = tested on: ADPRC activity and cADPR concentration in kidney tissue; assay: ADPRC activity and cADPR concentration in kidney tissue of renal disease mouse model; format: in vivo; conditions: STZ mice, DCQA i.p. every day for 6 weeks
Procedure: The ADPRC activity and cADPR concentration in the kidney tissue of a renal disease mouse model were measured by the method reported by Kim S Y et al. [Kim S Y, Park K H, Gul R, Jang K Y, Kim U H. Am. J. Physiol. Renal Physiol. 296: F291-F297, 2009]
as §1, with “In order to investigate” for “On”, “possibility as a therapeutic agent for a renal disease,” for “last day,”, “sacrificed” for “put in a metabolic cage”, “serum and kidney were taken.” for “urine was collected for 24 hours.”
After lysing some of the kidney tissue with a lysis buffer, 45 μL of the lysed sample was treated with 5 μL of 2 mM NGD (nicotinamide guanine dinucleotide) and reacted at 37° C. for 1 hour. Then, the enzyme-substrate reaction was stopped by treating with 50 μL of 10% trichloroacetic acid. After centrifuging for 10 minutes and adding 80 μL of the supernatant to 720 μL of a 0.1 M sodium phosphate buffer, absorbance was measured at 297 nm (excitation) and 410 nm (emission) with a fluorescence spectrometer (Hitachi, Japan). […]

[3] = target: T1, new ADP-ribosyl cyclase (ADPRC) of SEQ ID NO 1 (Mus musculus, UniProt P14094); assay: Inhibition of NAD glycohydrolase (NADase) activity of new ADPRC; format: biochemical; conditions: as compared to the control group; ε-NAD substrate, 37° C. 1 hour; inhibitor concentration not given; FIG. 5
T1 construct: FLAG (N); made in house; host or cells: HEK293 cells or MES13 cells (transient transfection)
Procedure: In order to investigate the ADP-ribosyl cyclase (ADPRC) activity of SEQ ID NO 1, a FLAG-ADPRC plasmid was prepared by ligating a cDNA sequence encoding ADPRC into a FLAG-CMV-2 vector and the overexpression of new ADPRC was induced by treating HEK293 cells or MES13 cells using a transfection reagent. The overexpressed new ADPRC was lysed with a lysis buffer. 45 μL of the lysed sample was treated with 5 μL of 2 mM ε-NAD (nicotinamide 1,N6-ethenoadenine dinucleotide) and incubated at 37° C. for 1 hour. Then, the enzyme-substrate reaction was stopped by treating with 50 μL of 10% trichloroacetic acid. After centrifuging for 10 minutes and adding 80 μL of the supernatant to 720 μL of 0.1 M sodium phosphate buffer, absorbance was measured at 297 nm (excitation) and 410 nm (emission) with a fluorescence spectrometer.
In order to find an inhibitor which inhibits the activation of new ADP-ribosyl cyclase (ADPRC) of SEQ ID NO 1, 5 μL of each of 4,4′-dihydroxyazobenzene (4-DHAB, TCI (Japan)), 2,2′-dihydroxyazobenzene (2-DAB, Sigma-Aldrich (USA)), 2-(3,4-dihydroxyphenyl)-3,5,7-trihydroxychromen-4-one (Quercetin, Sigma-Aldrich (USA)) and San4825 (synthesized by Kannt A et al. [Kannt A, Sicka K, Kroll K, Kadereit D, Gogelein H. Naunyn. Schmiedebergs. Arch. Pharmacol. 385: 717-727, 2012], China) and 2-(1,3-benzoxazol-2-ylamino)-1-methylquinazoline-4(1H)-one (2-BMQ) and 1,4-dicaffeoylquinic acid (1,4-DCQA, Biopurify (China), hereinafter DCQA), which were newly found through screening, was reacted with 40 μL of new ADPRC in iced water for 15 minutes. Then, reaction was conducted at 37° C. for 1 hour after treating with 5 μL of 2 mM ε-NAD (nicotinamide 1,N6-ethenoadenine dinucleotide). Then, the enzyme-substrate reaction was stopped by treating with 50 μL of 10% trichloroacetic acid. After centrifuging for 10 minutes and adding 80 μL of the supernatant to 720 μL of 0.1 M sodium phosphate buffer, absorbance was measured at 297 nm (excitation) and 410 nm (emission) using a fluorescence spectrometer.

**Q.** How did the blood glucose ([1]; FIG. 6A) turn out when O=C(/C=C/c1ccc(O)c(O)c1)OC1[C@H](O)CC(OC(=O)/C=C/c2ccc(O)c(O)c2)(C(=O)O)C[C@H]1O (stereo partly shown) [DCQA, 1,4-dicaffeoylquinic acid] was run?
**A.** did not show decreased in blood glucose

**Q.** What about the “kidney to body weight” value ([1]; FIG. 6B) of the same molecule?
**A.** significant decrease in kidney to body weight

**Q.** What about the creatinine clearance rate ([1]; FIG. 6C) of the same molecule?
**A.** significant increase in creatinine clearance rate

**Q.** What about the urine albumin level ([1]; FIG. 6D) of the same molecule?
**A.** significant decrease in the urine albumin level

**Q.** And the “cADPR concentration in kidney tissue” value ([2]; FIG. 7B)?
**A.** decreased the cADPR concentration increased by STZ to the level of the control group

**Q.** And the “ADP-ribosyl cyclase activity in kidney tissue” value ([2]; NGD substrate, FIG. 7A)?
**A.** decreased the ADP-ribosyl cyclase activity increased by STZ to the level of the control group

**Q.** And the “NAD glycohydrolase (NADase) activity inhibited” value [3]?
**A.** 79.64%
